We go through 27 compounds from the Kinase Knowledgebase extract (Sharma et al. 2016).

Each structure is given as a SMILES string. Where “and” joins values, the source holds several entries; their conditions need not be identical. Equal values may be shown once.

The target of this experiment is MAPK14 (UniProt Q16539). In words: Inhibition of MAPK14 Kinase Activity.
Chain of MAPK14 (Q16539 whole entry, looked up): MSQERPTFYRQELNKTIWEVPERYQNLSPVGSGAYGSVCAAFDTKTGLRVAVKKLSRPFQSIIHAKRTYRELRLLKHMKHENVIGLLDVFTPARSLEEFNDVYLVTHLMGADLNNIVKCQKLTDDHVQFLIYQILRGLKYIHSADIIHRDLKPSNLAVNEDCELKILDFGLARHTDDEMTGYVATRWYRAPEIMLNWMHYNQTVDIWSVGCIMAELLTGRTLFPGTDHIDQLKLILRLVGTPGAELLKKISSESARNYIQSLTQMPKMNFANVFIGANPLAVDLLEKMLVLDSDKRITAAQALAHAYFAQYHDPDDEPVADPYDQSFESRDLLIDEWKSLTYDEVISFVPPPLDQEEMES

As a reminder, the IC50 is the concentration that inhibits the measured activity by half. A low value points to higher potency. For `Oc1ccc(-c2nc(-c3ccccc3)[nH]c2-c2ccncc2)cc1`, the half-maximal inhibitory concentration (IC50) came to 1.41 µM.
The compound `Clc1cccc(-c2nc(-c3ccccc3)[nH]c2-c2ccncc2)c1` returned an IC50 of 0.128 µM.
As for `Fc1ccc(-c2nc(C3CCCCC3)[nH]c2-c2ccncc2)cc1`, the IC50 stood at 0.07 µM.
`N#Cc1ccc(-c2nc(-c3ccccc3)[nH]c2-c2ccncc2)cc1` returned an IC50 of 0.977 µM.
Take `Clc1cc(Cl)cc(-c2nc(-c3ccccc3)[nH]c2-c2ccncc2)c1`: the IC50 was 0.138 µM.
Turning to `C[C@H](Nc1nccc(-c2[nH]c(C3CCNCC3)nc2-c2cccc(C(F)(F)F)c2)n1)c1ccccc1`, the IC50 is 0.0007 µM and 0.0001 µM.
`C[C@@H](Nc1nccc(-c2[nH]c(C3CCNCC3)nc2-c2cccc(C(F)(F)F)c2)n1)c1ccccc1` showed an IC50 of 0.0009 µM.
As for `Fc1cccc(-c2nc(-c3ccccc3)[nH]c2-c2ccncc2)c1`, the figure is 0.489 µM; as for `Clc1ccccc1-c1nc(-c2ccccc2)[nH]c1-c1ccncc1`, 0.151 µM.
As for `FC(F)(F)c1cccc(-c2nc(-c3ccccc3)[nH]c2-c2ccncc2)c1`, the figure is 0.085 µM; as for `COc1ccc(CNc2nccc(-c3[nH]c(-c4ccccc4)nc3-c3ccccc3)n2)cc1`, 0.038 µM; as for `COc1ccc(CNc2nccc(-c3[nH]c(C4CCNCC4)nc3-c3cccc(C(F)(F)F)c3)n2)cc1`, 0.007 µM.
In turn, `Oc1cccc(-c2nc(-c3ccccc3)[nH]c2-c2ccncc2)c1` registered a 50% inhibitory concentration (IC50) of 0.141 µM.
Compound `Nc1nccc(-c2[nH]c(C3CCNCC3)nc2-c2cccc(C(F)(F)F)c2)n1` came in with an IC50 of 0.007 µM. This IC50 lies about 20-fold lower than the previous one.
In turn, `COc1cccc(-c2nc(-c3ccccc3)[nH]c2-c2ccncc2)c1` displayed a half-maximal inhibitory concentration (IC50) of 0.549 µM. This IC50 lies about 78-fold higher than the previous one.
`c1ccc(-c2nc(-c3ccccc3)c(-c3ccncc3)[nH]2)cc1` yielded an IC50 of 0.181 µM.
On to `Nc1nccc(-c2[nH]c(-c3ccccc3)nc2-c2ccccc2)n1`, for which the IC50 turned out to be 0.038 µM.
For `Clc1ccc(-c2nc(-c3ccccc3)[nH]c2-c2ccncc2)cc1`, the IC50 is 0.047 µM.
`c1ccc(-c2ccc(-c3nc(-c4ccccc4)[nH]c3-c3ccncc3)cc2)cc1` yielded a 50% inhibitory concentration (IC50) of 1 µM.
As for `Fc1ccc(-c2nc(C3CCNCC3)[nH]c2-c2ccncc2)cc1`, the 50% inhibitory concentration (IC50) worked out at 0.008 µM.
`c1ccc(-c2nc(-c3ccccc3)c(-c3ccncn3)[nH]2)cc1` gave a 50% inhibitory concentration (IC50) of 0.707 µM.
In turn, `CNc1nccc(-c2[nH]c(-c3ccccc3)nc2-c2ccccc2)n1` yielded an IC50 of 0.12 µM.
As for `Clc1ccc(-c2nc(-c3ccccc3)[nH]c2-c2ccncc2)cc1Cl`, the figure is 0.028 µM.
For the compound `FC(F)(F)c1ccc(-c2nc(-c3ccccc3)[nH]c2-c2ccncc2)cc1`, the IC50 came to 0.199 µM.
On to `Fc1ccc(-c2nc[nH]c2-c2ccncc2)cc1`, for which the IC50 came to 0.169 µM.
Turning to `COc1ccc(-c2nc(-c3ccccc3)[nH]c2-c2ccncc2)cc1`, the IC50 came out at 0.301 µM. This IC50 lies about 1.8-fold higher than the previous one.
`CC(C)c1nc(-c2ccccc2)[nH]c1-c1ccncc1` returned an IC50 of 2.09 µM.
